pIC50: −log10 of the molar value. Counter-ions that a name gives are not always drawn. Active and inactive are the calls of the source. The calls are words filed in the database; no cut-off is given here.
Key:
[1] = test system: A549; assay: Induction of apoptosis in human A549 cells assessed as loss of membrane potential at 1 uM after 24 hrs using Rhodamine-123 by flow cytometric analysis (Rvb =12.1 %); assay type: functional
[2] = test system: THP-1; assay: Cytotoxicity against human THP1 cells after 48 hrs by SRB assay; assay type: functional, cell-based; details: THP-1, 48 h
[3] = test system: A549; assay: Induction of apoptosis in human A549 cells assessed as caspase 9 activation at 1 uM after 12 hrs […] by colorimetry relative to control; assay type: functional, cell-based
[4] = test system: A549; assay: Cytotoxicity against human A549 cells after 48 hrs by SRB assay; assay type: functional, cell-based; details: A549, 48 h
[5] = test system: A549; assay: Induction of apoptosis in human A549 cells assessed as caspase 3 activation at 1 uM after 12 hrs […] by colorimetry relative to control; assay type: functional, cell-based
[6] = Cytotoxicity against human PC3 cells after 48 hrs by SRB assay; assay type: functional, cell-based; details: PC-3, 48 h
[7] = test system: A549; assay: Induction of apoptosis in human A549 cells assessed as increase in hypodiploid sub-G1 DNA fraction at 10 uM after 24 hrs by propidium iodide-based flow cytometric analysis (reference value: 3 %); assay type: functional
[8] = test system: MCF7; assay: Cytotoxicity against human MCF7 cells after 48 hrs by SRB assay; assay type: functional, cell-based; details: MCF7, 48 h
[9] = test system: A549; assay: Induction of apoptosis in human A549 cells assessed as increase in intracellular ROS at 1 uM after 24 hrs using DCFH-DA by spectrofluorimetry relative to control; assay type: functional, cell-based
[10] = test system: A549; assay: Induction of apoptosis in human A549 cells assessed as increase in hypodiploid sub-G1 DNA fraction at 1 uM after 24 hrs by propidium iodide-based flow cytometric analysis (reference value: 3 %); assay type: functional
[11] = test system: CHO; assay: Cytotoxicity against CHO cells assessed as change in LDH at 20 uM after 48 hrs by LDH colorimetric assay relative to control; assay type: cell-based, Cricetulus griseus; details: chinese hamster
[12] = test system: CHO; assay: Cytotoxicity against CHO cells assessed as change in LDH at 1 uM after 48 hrs by LDH colorimetric assay relative to control; assay type: cell-based, Cricetulus griseus; details: chinese hamster
[13] = test system: CHO; assay: Cytotoxicity against CHO cells assessed as change in LDH at 10 to 100 uM after 48 hrs by LDH colorimetric assay relative to control; assay type: cell-based, Cricetulus griseus; details: chinese hamster
[14] = test system: A549; assay: Induction of apoptosis in human A549 cells assessed as increase in hypodiploid sub-G1 DNA fraction at 2 uM after 24 hrs by propidium iodide-based flow cytometric analysis (reference value: 3 %); assay type: functional
[15] = test system: A549; assay: Induction of apoptosis in human A549 cells assessed as loss of membrane potential at 2 uM after 24 hrs using Rhodamine-123 by flow cytometric analysis (Rvb =12.1 %); assay type: functional

Compound | Activity [1] [%] | pIC50 [2] | Activity [3] | pIC50 [4] | Activity [5] | pIC50 [6] | Activity [7] [%] | pIC50 [8] | Activity [9] | Activity [10] [%] | Activity [11] [%] | Activity [12] [%] | Activity [13] [%] | Activity [14] [%] | Activity [15] [%]
COc1ccc(/C=C/[C@@]23C=CC4(OO2)C(C)(C)CCC[C@]4(C)O3)c(OC)c1OC (mixture of isomers) | 91.7 | 4.60 | Active | 5.15 | Active | < 4.00 | 74.7 | 4.74 | Active | 60.4 | – | – | – | – | –
CC1(C)CCC[C@]2(C)O[C@]3(/C=C/c4ccccc4Cl)C=CC12OO3 (mixture of isomers) | 99.7 | 5.46 | Active | 6.05 | Active | 4.89 | 61 | 6.00 | Active | 16.9 | – | – | – | – | –
CC1(C)CCC[C@]2(C)O[C@]3(/C=C/c4ccc(Cl)c(Cl)c4)C=CC12OO3 (mixture of isomers) | 63 | 6.70 | Active | 5.39 | Active | 4.68 | 71.7 | 5.38 | Active | 48.2 | – | – | – | – | –
COc1ccccc1/C=C/[C@@]12C=CC3(OO1)C(C)(C)CCC[C@]3(C)O2 (mixture of isomers) | 99.8 | 4.89 | Active | 5.19 | Active | < 4.00 | 83 | 4.96 | Active | 68.2 | – | – | – | – | –
CC1(C)CCC[C@]2(C)O[C@]3(/C=C/c4ccccc4Br)C=CC12OO3 (mixture of isomers) | 99.8 | 7.00 | Active | 5.70 | Active | < 4.00 | 78.2 | 5.89 | Active | 44.9 | – | – | – | – | –
Cc1ccccc1/C=C/[C@@]12C=CC3(OO1)C(C)(C)CCC[C@]3(C)O2 (mixture of isomers) | 50.5 | 5.40 | Active | 5.37 | Active | 4.70 | 69.8 | 8.00 | Active | 67 | – | – | – | – | –
COc1ccc(/C=C/[C@@]23C=CC4(OO2)C(C)(C)CCC[C@]4(C)O3)cc1OC (mixture of isomers) | 99.7 | 4.96 | Active | 4.92 | Active | < 4.00 | 69.8 | 5.00 | Active | 67.9 | – | – | – | – | –
CC1(C)CCC[C@]2(C)O[C@]3(/C=C/c4cccc5ccccc45)C=CC12OO3 (mixture of isomers) | 99.8 | 5.13 | Active | 7.70 | Active | < 4.00 | 80.3 | 6.15 | Active | 66.8 | – | – | – | – | –
CC1(C)CCC[C@]2(C)O[C@]3(/C=C/c4ccccc4F)C=CC12OO3 (mixture of isomers) | 99.8 | 6.40 | Active | 8.52 | Active | < 4.00 | 74.8 | 7.00 | Active | 60.7 | – | – | – | – | –
CC1(C)CCC[C@]2(C)O[C@]3(/C=C/c4ccccc4[N+](=O)[O-])C=CC12OO3 (mixture of isomers) | 99.7 | 5.55 | Active | 9.00 | Active | < 4.00 | 76 | 5.11 | Active | 74.8 | 135 | 108 | – | – | –
CC[C@@]1(O)C(=O)OCc2c1cc1n(c2=O)Cc2cc3ccccc3nc2-1 [CAMPTOTHECIN] | – | – | – | – | – | – | – | – | – | – | – | – | 126 | 49 | 96.1
COc1cccc2c1C(=O)c1c(O)c3c(c(O)c1C2=O)C[C@@](O)(C(=O)CO)C[C@@H]3O[C@H]1C[C@H](N)[C@H](O)[C@H](C)O1 [DOXORUBICIN HYDROCHLORIDE] | – | – | – | 7.00 | – | – | – | – | – | – | – | – | – | – | –
O=c1[nH]cc(F)c(=O)[nH]1 [FLUOROURACIL] | – | 7.40 | – | – | – | – | – | – | – | – | – | – | – | – | –
CO[C@@]12[C@H](COC(N)=O)C3=C(C(=O)C(C)=C(N)C3=O)N1C[C@@H]1N[C@@H]12 [MITOMYCIN] | – | 7.00 | – | 7.40 | – | – | – | 6.70 | – | – | – | – | – | – | –
